Data taken from patent US4376765A, “Medicaments, their preparation and compositions containing same” (Institut International de Pathologie Cellulaire et …, priority 1980, dated 1983).

Experiments:
[1] = tested on: lysosomal peptidase / purified lysosomal enzymes; assay: hydrolysis under conditions of lysosomal digestion (release of free drug); assay type: in vitro ADME; settings: for daunorubicine regenerated by the action of lysosomal peptidase: pH 6.0, aminoacid linked to daunorubicine
Excerpt: According to the invention, the arm is of peptidic nature and contains preferably 3 or 4 aminoacids. It is particularly important that the aminoacid being bound to the free amino function of the drug through its carboxylic function, has an asymmetric carbon atom and has the L-configuration because the peptidases or the lysosomal hydrolases only cut the peptidic bonds in the alpha position with respect to an asymmetric carbon. The aminoacid composing the peptidic spacer arm could be selected among the following L-aminoacids: α-aminobutyric acid, γ-aminobutyric acid, ε-aminocaproic acid, arginine, asparagine, aspartic acid, cysteic acid, cysteine, glutamine, glutamic acid, glycine, histidine, 4-hydroxyproline, […]. Of particular interest to play this function is L-leucine. […] In addition, a much higher rate of release of the free drug is obtained when the number of aminoacids making up the peptidic arm increases and may be as high as 78% when the intermediate peptide is made of a sequence of 4 aminoacids. Thus according to the invention, the intermediate "spacer arm" preferably is represented by the sequence

stability in the serum = assay type: in vitro ADME
Excerpt: According to the invention, the arm is of peptidic nature and contains preferably 3 or 4 aminoacids. It is particularly important that the aminoacid being bound to the free amino function of the drug through its carboxylic function, has an asymmetric carbon atom and has the L-configuration because the peptidases or the lysosomal hydrolases only cut the peptidic bonds in the alpha position with respect to an asymmetric carbon. The aminoacid composing the peptidic spacer arm could be selected among the following L-aminoacids: α-aminobutyric acid, γ-aminobutyric acid, ε-aminocaproic acid, arginine, asparagine, aspartic acid, cysteic acid, cysteine, glutamine, glutamic acid, glycine, histidine, 4-hydroxyproline, […]. Of particular interest to play this function is L-leucine.

L 1210 leukemia cells = assay: in vitro growth inhibition of L 1210 leukemia cells; assay type: cell-based; settings: 72 hours of culture; concentration near 10 μg/cm^3
Method: Thus the products in which the drug is daunorubicine inhibit in vitro the growth of cancerous cells such as cells of L 1210 leukemia in an appropriate medium. For example, after 72 hours of culture, BSA-succinyl-L-Ala-L-Leu-L-Ala-L-Leu-Daunorubicine at a concentration near 10 μg/cm^3, causes 90% of inhibition of the growth of L 1210 leukemia cells.

L 1210 leukemia = assay: mice inoculated intraperitoneally with L 1210 leukemia, treated by intraperitoneal route; assay type: in vivo; settings: for activity against L 1210 leukemia in mice compared with daunorubicine or L-leucyl-daunorubicine: i.p. inoculation, i.p. treatment; for activity against L 1210 leukemia in mice compared with daunorubicine or L-leucyl-daunorubicine / toxicity compared with daunorubicine or L-leucyl-daunorubicine: equal doses expressed as daunorubicine; for toxicity compared with daunorubicine or L-leucyl-daunorubicine: mice, i.p.
[2] = 5 mg/kg expressed as daunorubicine, mice with L 1210 leukemia

Compound: COc1cccc2c1C(=O)c1c(O)c3c(c(O)c1C2=O)C[C@@](O)(C(C)=O)C[C@@H]3O[C@H]1C[C@H](NC(=O)[C@@H](N)CC(C)C)[C@H](O)[C@H](C)O1 [N-L-leucyl-daunorubicine]
- regeneration of the free drug when submitted to lysosomal digestion [1]: regenerate rapidly the free drug
- free daunorubicine released ([1]; two hours hydrolysis at pH 4.5, lysosomal digestion): 65%
- free daunorubicine released ([1]; two hours hydrolysis at pH 6.0, lysosomal digestion): 90%
- stability in the serum (stability in the serum): stable in the serum

Compound: BSA-succinyl-L-Ala-L-Leu-L-Ala-L-Leu-Daunorubicine: succinyl-alanyl-leucyl-alanyl-leucyl-daunorubicine coupled with bovine serum albumin
- inhibition of the growth of L 1210 leukemia cells (L 1210 leukemia cells): 90%
- activity against L 1210 leukemia in mice compared with daunorubicine or L-leucyl-daunorubicine (L 1210 leukemia): markedly better activity than that of daunorubicine or L-leucyl-daunorubicine
- toxicity compared with daunorubicine or L-leucyl-daunorubicine (L 1210 leukemia): less toxicity

Compound: N[C@@H](Cc1ccc(O)cc1)C(=O)O [L-tyrosine]
- daunorubicine regenerated by the action of lysosomal peptidase [1]: 70%

Compound: COc1cccc2c1C(=O)c1c(O)c3c(c(O)c1C2=O)C[C@@](O)(C(C)=O)C[C@@H]3O[C@H]1C[C@H](N)[C@H](O)[C@H](C)O1 [daunorubicine, reference compound]
- increase of life span (ILS) (L 1210 leukemia; [2]): about 7%
- toxicity at the dose (L 1210 leukemia; 5 mg/kg, mice with L 1210 leukemia): already toxic at that dose

Compound: COc1cc(NC(C)CCCNC(=O)[C@@H](N)CC(C)C)c2ncccc2c1 (stereo partly drawn) [N-L-leucyl-primaquine]
- regeneration of the free drug when submitted to lysosomal digestion [1]: regenerate rapidly the free drug
- stability in the serum (stability in the serum): stable in the serum

Compound: CC[C@H](C)[C@H](N)C(=O)O [L-isoleucine]
- daunorubicine regenerated by the action of lysosomal peptidase [1]: 60%

Compound: fetuine-succinyl-L-Ala-L-Leu-L-Ala-L-Leu-daunorubicine: succinylated fetuine coupled with L-alanyl-L-leucyl-L-alanyl-L-leucyl-daunorubicine
- increase of life span (ILS) (L 1210 leukemia; [2]): ~194%
- surviving mice after 30 days of observation (L 1210 leukemia; 5 mg/kg expressed as daunorubicine, of 10 mice): 8
- activity against L 1210 leukemia in mice compared with daunorubicine or L-leucyl-daunorubicine (L 1210 leukemia): markedly better activity than that of daunorubicine or L-leucyl-daunorubicine
- toxicity compared with daunorubicine or L-leucyl-daunorubicine (L 1210 leukemia): less toxicity

Compound: COc1cccc2c1C(=O)c1c(O)c3c(c(O)c1C2=O)C[C@@](O)(C(=O)CO)C[C@@H]3O[C@H]1C[C@H](NC(=O)[C@@H](N)CC(C)C)[C@H](O)[C@H](C)O1 [N-L-leucyl-doxorubicine]
- regeneration of the free drug when submitted to lysosomal digestion [1]: regenerate rapidly the free drug
- stability in the serum (stability in the serum): stable in the serum
